Seven compounds from patent publication US20170247645A1, “ENCAPSULATED FRAGRANCE MIXTURES” (Symrise AG, priority 2014, published 2017) can be followed below.

Series [1] in a line: Odor threshold value (OTV) in air. The source says: The odor threshold is the threshold at which a fragrance or odorant is olfactorily perceived by an organism. The odor threshold value, OTV for short, is that minimum concentration of a particular gaseous, sensorily active substance in the surrounding medium that this lifeform is just able to perceive through its sense of smell. In the present invention, preference is given to fragrances having a (very) low odor threshold value. The lower this is, the lower the concentration at which the fragrance is then perceived.

Series [2] can be described thus: log Kow (octanol/water partition coefficient). The format is physicochemical. To be noted: 1-octanol/water. The source says: In a further preferred embodiment, the individual fragrances of the fragrance mixture of the invention have a log Kow value of 1 to 10, preferably of 1.5 to 8, more preferably of 2 to 5.5.
The log Kow (octanol/water partition coefficient) is a measure of the lipophilicity of a substance. In terms of calculation, it is the partition coefficient Kow of a substance in a mixture of 1-octanol and water. Kow is greater than one when a substance has better solubility in fat-like solvents such as n-octanol, and less than one when it has better solubility in water. Correspondingly, log Kow is positive for lipophilic substances and negative for hydrophilic substances.

Take `CC(C)=C[C@H]1C[C@@H](C)CCO1` [Example 1, Rose oxide]: the OTV in series [1] is listed as 0.5 ppm. The “log Kow” value in series [2] came to 3.58.
Regarding `CCOC(=O)[C@H]1O[C@@]1(C)c1ccccc1` [Example 2, Aldehyde C16], in series [1], the OTV is recorded as 0.2 ppm. In series [2], the “log Kow” value was 3.
The corresponding values for `CC(C)=CCC[C@@H](C)CC#N` [Example 3, citronellylnitrile] are 1 ppm and 3.55.
The corresponding values for `CC(C)=CCCC1=CC[C@](C)(C=O)CC1` [Example 6, Pre-cyclemone B] are 0.5 ppm and 5.19.
In series [1], `C=CCOC(=O)COCCC(C)C` [Example 7, Allyl amyl glycolate] gave an OTV of 0.1 ppm.
In series [1], `COc1nccnc1CC(C)C` [Example 9, 2-Isobutyl-3-methoxypyrazine] returned an OTV of 0.1 ppm. Also, the “log Kow” value in series [2] came to 2.86.
For `CCCCC/C=C\CCC=O` [Example 10, cis-4-Decenal] the same measures were 0.2 ppm and 3.55.
